{
  "source": "paper PMC12033364",
  "about": "“Emergence of transferable daptomycin resistance in Gram-positive bacteria” (npj Antimicrobials and Resistance, 2025)",
  "key": {"S. aureus RN4220": {"test_system": "S. aureus RN4220", "test": "DAP MIC, micro-broth dilution, plasmid-carrying strains", "type": "cell-based, Staphylococcus aureus", "conditions": "MH + 50 µg/mL CaCl2, 18 h 37 °C, three biological replicates", "protocol": "(§1) Bacteria were grown in Muller-Hinton broth (MH) (Carl Roth GmbH + Co. KG, Karlsruhe, Germany) and over-night cultures supplemented with antibiotics when required. […] For transcription profiling experiments, bacteria were exposed to 128 µg/mL DAP for 30 min. All strains, except bacilli (30 °C), were incubated at 37 °C.\n(§2) Recombinant plasmids (Table S1) were generated by in vitro E. coli cloning method, employing shuttle vector pCG248 as backbone and E. coli DC10B as host. After recovery from E. coli, recombinant plasmids were transformed into S. aureus or B. subtilis via electroporation.\n(§3) The cultures were adjusted to 5 × 10^5 CFU/mL and transferred to a 96-well flat bottom microtiter plate (Greiner Bio-One GmbH, Frickenhausen, Germany). 100 ng/mL anhydrotetracycline (ATc) (Carl Roth GmbH + Co. KG, Karlsruhe, Germany) was added if required; ATc-containing plates were stored in the dark. Plates were incubated for 18 h at 37 °C (24 h at 30 °C for bacilli) under static conditions. Afterwards, the OD595 was measured to determine the MIC according to EUCAST guidelines."}, "S. aureus USA300 LAC*": {"test_system": "S. aureus USA300 LAC*", "test": "DAP MIC, micro-broth dilution, plasmid-carrying MRSA strains", "type": "cell-based, Staphylococcus aureus", "conditions": "MH + 50 µg/mL CaCl2, 18 h 37 °C, three biological replicates", "protocol": "as §1, §2, §3"}, "B. subtilis 168": {"test_system": "B. subtilis 168", "test": "DAP MIC, micro-broth dilution, plasmid-carrying strains", "type": "cell-based, Bacillus subtilis", "protocol": "as §1, §2, §3"}, "[1]": {"test_system": "drcA and drcB (TS92_00079, TS92_00080) in M. sciuri TS92", "test": "Transcription profiling (RNA-Seq) upon DAP exposure", "type": "cell-based, Mammaliicoccus sciuri", "conditions": "M. sciuri TS92 exposed to 128 µg/mL DAP for 30 min, three biological replicates, DESeq2", "protocol": "An overnight culture of M. sciuri TS92 was diluted in fresh MH to an optical density at 600 nm (OD600) of 0.05 and grown to OD600 0.5. The culture was split into 10 mL each aliquots and incubated in the absence and presence of 128 µg/mL DAP for 30 min. Subsequently, total RNA extraction was performed as described previously.\nRNA was isolated from three biological replicates. RNA quality was checked using a 2100 Bioanalyzer with the RNA 6000 Nano Kit (Agilent Technologies, Santa Clara, USA). cDNA libraries suitable for sequencing were prepared from 1000 ng of total RNA after DNase I treatment (Thermo Fisher, Darmstadt, Germany). […] The number of PCR cycles was determined at 14 by qPCR and the elongation time was set to 15 s. Libraries were quantified by Qubit^TM dsDNA HS Assay Kit and Qubit^TM 3.0 Fluorometer (ThermoFisher), and quality was checked using 2100 Bioanalyzer with the High Sensitivity DNA Kit (Agilent Technologies) before pooling. Sequencing of pooled libraries, spiked with 5% PhiX control library, was performed at ~11–15 million reads per sample in single-end mode with 75 nucleotide read length on the NextSeq 500 platform (Illumina, San Diego, CA, USA). […] Afterwards, the pipeline READemption v0.4.5[59] was applied to align all reads longer than 11 nt (-l 12) to our de novo assembled M. sciuri TS92 genome using segemehl v0.2.0[60] with an accuracy cut-off of 95% (-a 95). […]"}, "[2]": {"test_system": "Enterococcus faecalis CVM N59689F", "conditions": "E. faecalis CVM N59689F, drc-carrying isolate from market swine; cited from earlier work", "source_text": "Table 1 Detection of the drc locus (drcRS/drcAB) in staphylococci and enterococci | column: DAP MIC (µg/mL) || Another bottleneck in clinical AMR development is that AMR genes from environmental microorganisms must gain access to pathogenic species. This requires donors and recipients to come into close physical contact, which is often challenging as pathogenic and environmental species rarely share the same ecological niche. In this respect, M. sciuri may play a crucial role in drc acquisition and spread. Due to its dual lifestyle as a soil bacterium and animal commensal, M. sciuri comes into contact with both the soil resistome and commensal bacteria associated with warm-blooded hosts, making M. sciu ..."}},
  "data": [
    {"smiles": "CCCCCCCCCC(=O)N[C@@H](Cc1c[nH]c2ccccc12)C(=O)N[C@H](CC(N)=O)C(=O)N[C@@H](CC(=O)O)C(=O)N[C@@H]1C(=O)NCC(=O)N[C@@H](CCCN)C(=O)N[C@@H](CC(=O)O)C(=O)N[C@H](C)C(=O)N[C@@H](CC(=O)O)C(=O)NCC(=O)N[C@H](CO)C(=O)N[C@@H]([C@H](C)CC(=O)O)C(=O)N[C@@H](CC(=O)c2ccccc2N)C(=O)O[C@@H]1C", "note": "[DAP, Daptomycin]", "values": [
      {"measurement": "DAP MIC", "setting": "S. aureus RN4220; S. aureus RN4220_Pxyl/tet-drcAB + ATc (100 ng/mL, induced)", "value": 64, "unit": "µg/mL"},
      {"measurement": "DAP MIC", "setting": "S. aureus RN4220; S. aureus RN4220_drcRS/drcAB (entire drc locus, native drcRS control, plasmid)", "value": 64, "unit": "µg/mL"},
      {"measurement": "DAP MIC", "setting": "S. aureus RN4220; S. aureus RN4220_empty vector control", "value": 1, "unit": "µg/mL"},
      {"measurement": "DAP MIC", "setting": "S. aureus USA300 LAC*; S. aureus USA300 LAC*_Pxyl/tet-drcAB + ATc (induced)", "value": 32, "unit": "µg/mL"},
      {"measurement": "DAP MIC", "setting": "S. aureus USA300 LAC*; S. aureus USA300 LAC*_drcRS/drcAB (entire drc locus on plasmid)", "value": 128, "unit": "µg/mL"},
      {"measurement": "DAP MIC", "setting": "S. aureus USA300 LAC*; S. aureus USA300 LAC*_empty vector control", "value": 1, "unit": "µg/mL"},
      {"measurement": "DAP MIC", "setting": "B. subtilis 168; B. subtilis 168_Pxyl/tet-drcAB + ATc (induced), MH + 50 µg/mL CaCl2, 24 h 30 °C, three biological replicates", "value": 16, "unit": "µg/mL"},
      {"measurement": "DAP MIC", "setting": "B. subtilis 168; B. subtilis 168_drcRS/drcAB (entire drc locus on plasmid), MH + 50 µg/mL CaCl2, 24 h 30 °C, three biological replicates", "value": "> 256", "unit": "µg/mL"},
      {"measurement": "DAP MIC", "setting": "B. subtilis 168; B. subtilis 168 as worded in the text, before induction of drcAB expression", "value": 2, "unit": "µg/mL"},
      {"measurement": "up-regulation of drcA and drcB transcription upon DAP exposure versus untreated control", "setting": "[1]", "value": 128, "unit": "fold change"},
      {"measurement": "DAP MIC", "setting": "[2]", "value": ">16", "unit": "µg/mL"}
    ]}
  ]
}
